# “And” between values parts separate entries of the source, which are not always exact repeats. Equal entries are not always repeated.
# Columns and labels:
# [1] = test system: GFP-MinD expression (B. subtilis TB35); assay: Translation inhibition assay (inducible GFP-MinD expression); format: cell-based, Bacillus subtilis; conditions: 3.125 µM Pt1, 25 µM Pt8; 60 min
# Procedure: B. subtilis strain TB35 (Pxyl-minD-gfp) was grown in LB without inducer. After reaching an OD600 of 0.3, antibiotics and inducer (0.1% xylose) were added consecutively. Samples were withdrawn for microscopy after 60 min of treatment, spotted on glass slides covered with 1% agarose films, and imaged without delay.
# Figure S11: MinD translation induction assay. TB35 (Pxyl-minD-gfp) was grown without xylose, thus not expressing GFP -MinD. […]
# chloramphenicol (CHL). Images were taken after 60 min of induction/treatment. Scale bar 2 […]
# (1 picture or pasted object on this page, not shown here)
# [2] = test system: RecA-GFP (B. subtilis UG10); assay: Localization of RecA-GFP (DNA damage reporter); format: cell-based, Bacillus subtilis; conditions: Pt1 3.125 µM, Pt8 25 µM, CisPt 100 µM; strongest after 10 min
# Procedure: To confirm whether the compounds induce DNA damage in bacterial cells, the localization of RecA was assessed. RecA is part of the bacterial SOS response to DNA damage. It is a DNA-associated protein that recognizes single-stranded DNA, which occurs as a consequence of strand breaks. If strand breaks are present, RecA accumulates at the damaged sites, appearing as foci or elongated structures. Since the RecA response is strongest shortly after stress induction, we additionally examined a 10 min timepoint in this assay.
# B. subtilis strains were grown in LB containing appropriate inducer concentrations as specified in Table S10. After reaching an OD600 of 0.3, cultures were split and treated with antibiotics. Samples were withdrawn after 30 and 60 min of treatment, spotted on glass slides covered with 1% agarose films, and immediately imaged.
# [3] = test system: methicillin-resistant S. aureus (MRSA) COL; assay: MIC assay, MRSA COL; format: cell-based, Staphylococcus aureus; conditions: MRSA COL
# B. subtilis bSS82 = assay: Bacterial cytological profiling (BCP); format: cell-based, Bacillus subtilis
# Source text: To get an overview of the cellular effects of the compounds, we employed bacterial cytological profiling (BCP). To this end, we used a strain intracellularly expressing green-fluorescent protein (GFP) from the strong, constitutive PrpsD promoter (B. subtilis bSS82[37]), stained with the membrane dye Nile red and the DNA dye DAPI. Combined with phase contrast microscopy, this setup allows simultaneous assessment of cell morphology, cell lysis, pore formation, membrane morphology, and nucleoid morphology in one assay.
# BCP was performed according to Wenzel et al.[71]. In short, B. subtilis strain […] (PrpsD-gfp) was grown to an OD600 of 0.3 prior to splitting of parent cultures and addition of antibiotics. Samples were taken for microscopy after 30, 60, and 120 min of antibiotic treatment. Five minutes prior to sampling, cultures were stained with 0.5 µg/mL Nile red and 1 µg/mL DAPI for 5 min. Samples of 0.5 µL were then spotted onto 1% agarose slides[45] and images were taken immediately.
# Cell length and DAPI intensity were analyzed using MicrobeJ[73]. To this end, the fit shape, rod-shaped setting was used with a minimum area of 0.5 µm, while all other settings remained at default. B. subtilis chains were seperated based on the membrane stain. Membrane stress was counted using the ObjectJ plugin[74], using the membrane setting to seperate individual cells in chains. Membrane damage was expressed as ratio of cells with visible Nile red foci and total detected cells. DNA compaction was analyzed by determining the area of the DNA and the whole cell are using advanced weka segmentation. Cells were segmented according to the GFP signal. […] Cells that were out of focus or lysed were excluded from the analysis. Statistical analysis was peformed using GraphPad Prism 10 as specified in the individual figure legends.
# [4] = test system: 36th Passage S.aureus ATCC 29213 in the presence of Pt-1; assay: microbe, parasite or virus in culture; format: cell-based; conditions: strain resulting from 36 passages
# Procedure: The MICs of the passaged cultures were determined every 3 days and compared to that of wild type S. aureus ATCC 29213. MIC changes were recorded for 36 passages.
# E. coli tolC = test system: E. coli tolC; set-up: method as in PMID 34018686; conditions: efflux-impaired mutant; cited from earlier work
# MRSA NRS 198 = assay: Broth microdilution MIC, MRSA NRS 198; format: cell-based, S. aureus; conditions: MRSA NRS 198
# Procedure: (§1) The data is given in supporting information (Table S5). Before starting the experiment, a single colony was picked from MHA plate, inoculated in MHBII and incubated overnight at 37 °C with shaking for 18–24 h to get the starter culture. Antibiotic susceptibility testing was conducted according to the CLSI (Clinical & Laboratory Standards Institute) guidelines using the broth microdilution assay. 10 mg/mL stock solutions of test compounds were prepared in DMSO. Bacterial cultures were inoculated in MHBII and optical density (OD) was measured at 600 nm, followed by dilution to achieve ~10^6 CFU/mL. The compounds were tested from 64 to 0.5 mg/L in two-fold serial diluted fashion with 2.5 μL of each concentration added to well of a 96-well round bottom microtiter plate. Later, 97.5 μL of bacterial suspension was added to each well containing either test compound or appropriate controls. […] The MIC is defined as the lowest concentration of the compound at which there is absence of visible growth. For each test compound, MIC determinations were carried out independently three times using duplicate samples.
# VRSA VRS 4 = assay: Broth microdilution MIC, VRSA VRS 4; format: cell-based, S. aureus; conditions: VRSA VRS 4
# Procedure: as §1
# MRSA NRS 119 = assay: Broth microdilution MIC, MRSA NRS 119; format: cell-based, S. aureus; conditions: MRSA NRS 119
# Procedure: as §1
# E. coli lpxC = conditions: lipid A biosynthesis-impaired mutant; cited from earlier work
# MRSA NRS 193 = assay: Broth microdilution MIC, MRSA NRS 193; format: cell-based, S. aureus; conditions: MRSA NRS 193
# Procedure: as §1
# Bacillus subtilis MW168 = assay: MIC assay, B. subtilis MW168; format: cell-based; conditions: B. subtilis MW168
# K. pneumoniae BAA 1705 = assay: Broth microdilution MIC, K. pneumoniae BAA 1705; format: cell-based, Klebsiella pneumoniae
# Procedure: as §1
# [5] = test system: methicillin-sensitive Staphylococcus aureus (MSSA), clinical isolate; assay: MIC assay, MSSA clinical isolate; format: cell-based; conditions: MSSA clinical isolate
# P. aeruginosa ATCC 27853 = assay: Broth microdilution MIC, P. aeruginosa ATCC 27853; format: cell-based, Pseudomonas aeruginosa
# Procedure: as §1
# [6] = 60 min, Pt1 3.125 µM, Pt8 25 µM, CisPt 100 µM
smiles,measurement,setting,value
C1=C\CC/C=C\CC/1.[Cl][Pt][Cl] [Pt1],GFP-MinD expression after xylose induction,[1],No differences in GFP-MinD expression were observed
same,RecA accumulation on nucleoids,[2],clear RecA accumulations
same,MIC,[3],3.125 µM
same,Nile red foci (membrane stress),"B. subtilis bSS82; 3.125 µM, not statistically supported","Nile red foci, indicating membrane stress, were observed"
same,DAPI fluorescence intensity,B. subtilis bSS82; [6],significant reduction of the DAPI signal
same,nucleoid compaction (cell area vs DAPI-stained nucleoid area),B. subtilis bSS82; [6],clear nucleoid compaction
same,cross-resistance to other antibiotics,[4],no cross-resistance was observed
same,antibacterial activity,E. coli tolC,inactive
same,MIC,MRSA NRS 198,0.25 µg/mL and 0.67 µM
same,MIC,VRSA VRS 4,0.67 to 1.34 µM
same,MIC,MRSA NRS 119,0.125 – 0.25 µg/mL and 0.33–0.67 µM
same,antibacterial activity,E. coli lpxC,inactive
same,MIC,MRSA NRS 193,0.25 µg/mL and 0.67 µM
same,MIC,Bacillus subtilis MW168,6.25 µM
same,MIC,K. pneumoniae BAA 1705,> 64 µg/mL
same,MIC,[5],3.13 to 6.25 µM
same,MIC,P. aeruginosa ATCC 27853,> 64 µg/mL
